Holding throughout (assay): inhibition of tumour cell growth, NCI panel, 48 h
Assay [1] concerns Malme-3M.
In assay [2] the test system is SF-268.
Assay [3] deals with TK-10.
The subject of assay [4] is SK-MEL-2.
For assay [5], the system named is IGROV-1.
Assay [6] relates to SK-MEL-28.
The subject of assay [7] is SF-539.
In assay [8] the test system is SF-295.
The test system of assay [9] is DMS-273.
The test system of assay [10] is HOP-92.
The subject of assay [11] is SNB-75.
The test system of assay [12] is HT-29.
Assay [13] deals with UO-31.
In assay [14] the test system is HCT-116.
In assay [15] the test system is HL-60.
Assay [16] concerns OVCAR-4.
In assay [17] the test system is K562.
In assay [18] the test system is OVCAR-3.
Assay [19] deals with Hs-578T.
Assay [20] relates to MCF7.

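Interpolation was linear, between the two tested concentrations surrounding the appropriate level; five concentrations were tested over 48 hours in 96-well plates. GI50 marks 50% less growth.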 The source made the active and inactive calls. Cut-off read from the data, not from the text of the source: active = GI50 up to about 1.1 µM and inactive = higher.

The results in this text go back to ChEMBL document CHEMBL1201862, “PubChem BioAssay data set” (2004).

For the molecule `COc1cc2oc(-c3ccccc3)cc(=O)c2c(O)c1C`, the GI50 in assay [1], in assay [2], in assay [3], in [4], in assay [5] and in [6] was > 100 µM (inactive) in each case. Also, the GI50 in assay [7] was > 100 µM (inactive); in [8], > 100 µM (inactive); in assay [9] it was > 100 µM (inactive); in assay [10], 27.4 µM (inactive); in assay [11] it was > 100 µM (inactive); in assay [12], > 100 µM (inactive). Also, the GI50 in [13], in assay [14], in assay [15], in assay [16], in assay [17] and in assay [18] was > 100 µM (inactive) in each case.
For the molecule `COc1ccc(/C=C2\CCC(C)(CN(C)C)C2=O)cc1` (configuration not stated), the GI50 in assay [1], in assay [2], in assay [3], in [4], in assay [5] and in assay [6] was > 100 µM (inactive) in each case. In addition, the GI50 in assay [7], in [8], in assay [9], in assay [10], in assay [11] and in assay [12] was > 100 µM (inactive) in each case. Moreover, the GI50 in assay [13] is > 100 µM (inactive); in assay [14], > 100 µM (inactive); in assay [15] it was 56.4 µM (inactive); in assay [16] it was > 100 µM (inactive); in assay [17], 64 µM (inactive); in assay [18], > 100 µM (inactive).
As for `C=C(C)[C@@H]1CC[C@]2(C)CC[C@]3(C)[C@H](CC[C@@H]4[C@@]5(C)CC[C@H](O)C(C)(C)[C@@H]5CC[C@]43C)[C@@H]12` [LUPEOL], the GI50 in assay [19] is 25.6 µM (inactive); in [1], > 89.3 µM (inactive); in assay [2] it was > 55.7 µM (inactive); in assay [3] it was > 79.6 µM (inactive); in assay [4], > 100 µM (inactive); in [5] it was > 54.7 µM (inactive). For the same molecule, the GI50 is > 65.2 µM (inactive) in [6]; > 88.7 µM (inactive) in assay [7]; > 50.8 µM (inactive) in assay [8]; > 100 µM (inactive) in assay [9]; 36.1 µM (inactive) in assay [10]; 38.2 µM (inactive) in assay [11]. The GI50 in assay [12] was > 78.2 µM (inactive); in assay [13], > 47.8 µM (inactive); in assay [14], 44.5 µM (inactive); in assay [15] it was 47.4 µM (inactive); in assay [20] it was 21.7 µM (inactive); in assay [16] it was > 100 µM (inactive). Further, the GI50 was > 46 µM (inactive) in assay [17] and > 55.1 µM (inactive) in assay [18].
`CCOC(C/N=c1/nc(N(C)C)ss1)OCC`: the GI50 in assay [19] was > 54.8 µM (inactive); in assay [1], 7.71 µM (inactive); in assay [2], 30.1 µM (inactive); in assay [3], 33.3 µM (inactive); in [4] it was 13.8 µM (inactive); in assay [5], > 27.5 µM (inactive). In addition, the GI50 in assay [6] was 21.5 µM (inactive); in assay [7] it was 17.4 µM (inactive); in assay [8], 22.2 µM (inactive); in assay [9], 23 µM (inactive); in assay [10], 18.4 µM (inactive); in assay [11], 27.6 µM (inactive). For the same molecule, the GI50 in assay [12] is 0.135 µM (active); in assay [13] it was 43.5 µM (inactive); in assay [14], 14.9 µM (inactive); in assay [15] it was 1.31 µM (inactive); in [20], 2.5 µM (inactive); in assay [16], 16.6 µM (inactive). Also, the figures for the GI50 in assay [17] and in assay [18] were 0.354 µM (active) and 9.89 µM (inactive), respectively.
Take `CC(=O)Nc1ccc(C(=O)NN2C(=O)C(Cl)C2c2ccccc2O)cc1` (configuration not stated): the GI50 was 82.2 µM (inactive) in assay [1]; 84.7 µM (inactive) in assay [2]; 51.4 µM (inactive) in [3]; 15.7 µM (inactive) in assay [4]; > 100 µM (inactive) in assay [5]; > 100 µM (inactive) in [6]. Moreover, the GI50 in assay [7] is 42.1 µM (inactive); in assay [8], 29.1 µM (inactive); in assay [9], 99.1 µM (inactive); in [10], 47.6 µM (inactive); in assay [11], 36.8 µM (inactive); in assay [12] it was 69 µM (inactive). The GI50 in [13] was 34.4 µM (inactive); in assay [14] it was > 100 µM (inactive); in assay [15] it was 84.7 µM (inactive); in assay [16], > 100 µM (inactive); in [17] it was > 100 µM (inactive); in [18] it was 3.26 µM (inactive).
`CCCCCCCCCCCCCCCC(=O)Nc1ccn(C2OC(CO)C(O)C2O)c(=O)n1` (configuration not stated): the GI50 is > 45.2 µM (inactive) in assay [19]; 4.22 µM (inactive) in assay [1]; 15.2 µM (inactive) in [2]; > 100 µM (inactive) in [3]; > 100 µM (inactive) in [4]; 35.6 µM (inactive) in assay [5]. Also, the GI50 in [6] is 41.9 µM (inactive); in [7], 57.7 µM (inactive); in assay [8], 51.1 µM (inactive); in [9], 5.66 µM (inactive); in assay [10], 16.6 µM (inactive); in assay [11] it was 30.5 µM (inactive). Also, the GI50 was 25.7 µM (inactive) in [12]; 3.4 µM (inactive) in assay [13]; 1.21 µM (inactive) in assay [14]; 2.77 µM (inactive) in assay [15]; 0.94 µM (active) in assay [20]; > 100 µM (inactive) in [16]. The GI50 in assay [17] is 9.75 µM (inactive); in assay [18], 34.2 µM (inactive).
For the molecule `C/C=C/C#CC#C/C=C/C=C/C(O)CCO` (configuration not stated), the GI50 in [1], in [2], in assay [3], in assay [4], in [5] and in assay [6] was > 23.1 µM (inactive) throughout. For the same molecule, the GI50 in assay [7] is > 23.1 µM (inactive); in [8], > 18.7 µM (inactive); in assay [9] it was > 23.1 µM (inactive); in assay [10], > 23.1 µM (inactive); in assay [11], 17.7 µM (inactive); in [12] it was > 23.1 µM (inactive). For the same molecule, the GI50 in assay [13] is > 23.1 µM (inactive); in assay [14] it was > 23.1 µM (inactive); in [15], > 18.1 µM (inactive); in assay [16], > 23.1 µM (inactive); in assay [17] it was > 23.1 µM (inactive); in [18] it was > 23.1 µM (inactive).
